Assays:
[1] = system: E. multilocularis germinal cells; experiment: CellTiter-Glo viability assay on germinal cells; type: cell-based, Echinococcus multilocularis; settings: 5 days
Description: To evaluate the activity of thiacloprid against parasitic stem cells, germinal cells from in vitro metacestode vesicles were investigated as described by Spiliotis et al.. Briefly, 20 units of cells were distributed into a black 384-well plate. Different concentrations of thiacloprid or PZQ (0, 0.06, 1.2, 2.5, 5, 10, 20, 40, 80 and 160 μM) were added to the cells. After culture at 37 °C for 5 days under a humid nitrogen atmosphere, 25 μl CellTiter-Glo containing 1% Triton X-100 was added. The plates were incubated at room temperature in the dark for 15 min. After the total destruction of the cellular aggregates, luminescence was measured using an Infinite M200 PRO reader (Tecan), and 0 μM values were set to 100% viability. The IC50 values were calculated using an online IC50 calculator after logit-log transformation. Four independent replicates were conducted.

[2] = system: IL-2, IL-4, IL-10 and IgE; experiment: ELISA of cytokines and IgE in infected mice; type: in vivo; settings: infected BALB/c mice, 6 weeks oral treatment
Description: (§1) In vitro-grown metacestode vesicles were pressed through a 500 µm mesh and washed three times with sterile PBS. The parasite tissue was then taken up in an equal volume of sterile PBS. Each mouse was intraperitoneally injected with 200 μl suspension. Seven mice were injected with 200 μl PBS as the control group. Twenty-eight infected mice were randomly distributed into four groups (7 mice/group): the untreated group was not administered any drug; the ABZ group was treated with ABZ orally (100 mg/kg/day); and the Thia15 group and Thia30 group received thiacloprid orally (15 mg/kg/day and 30 mg/kg/day). Treatments of mice started 2 weeks post-infection, and treatments were administered daily for 6 weeks. After 6 weeks of treatment, whole blood via the orbital sinus was collected from mice and the animals were euthanized by CO2. Blood samples were incubated at 37 °C for 1 h and centrifuged at 3500 rpm for 10 min at 4 °C. The serum was harvested and stored at –20 °C for IL-2, IL-4, IL-10 and IgE detection. All metacestode tissues were collected, and the total wet weight of metacestodes per mice was determined. Furthermore, the content of cytokines in microcyst fluid was detected by enzyme-linked immunosorbent assay (ELISA). Several metacestode tissue specimens were processed for transmission electron microscopy (TEM) and histopathological experiments.
ELISA was employed to detect serum IL-2, IL-4, IL-10 and IgE following the manufacturer's instructions. Mouse collagen I and collagen III ELISA kits were used to measure the levels of collagen I and collagen III in the cell culture supernatant after intervention with thiacloprid. All ELISA kits were provided by Elabscience Biotechnology Co., Ltd., Wuhan, China. The OD value at 450 nm was read with a Tecan Infinite M200 PRO enzyme reader (Männedorf, Switzerland), and the concentration was calculated according to the standard curve.

[3] = system: E. multilocularis metacestodes; experiment: In vivo treatment of mice experimentally infected with E. multilocularis metacestodes; set-up: species or system Echinococcus multilocularis; settings: for Wet weight of the metacestodes: infected BALB/c mice, untreated 6.49 ± 1.18 g
Description: as §1
Tissues from experimental animals were washed in PBS and fixed in 4% paraformaldehyde at room temperature for […]. On the next day, they were dehydrated, embedded, and sliced into 5-μm sections. After dewaxing and dehydrating, sections were stained with hematoxylin for 2–5 min, and re-stained with eosin for 15 s. They were sealed with neutral gum and observed under a BX51 microscope (Olympus, Tokyo, Japan).
A Periodic Acid Schiff Stain Kit (Solarbio, Beijing, China) was used to show the PAS-positive laminated layer characteristic of E. multilocularis metacestodes. The section (5 μm) was dewaxed in xylene and rehydrated in 100%, 95%, 80%, and 75% alcohol baths. Staining was then carried out according to the kit instructions.

[4] = system: E. multilocularis protoscoleces and germinal cells; experiment: Glucose consumption (2-deoxyglucose uptake); type: cell-based, Echinococcus multilocularis
Description: Glucose consumption in E. multilocularis protoscoleces and germinal cells was detected using the Screen Quest Colorimetric Glucose Uptake Assay Kit (AAT Bioquest, Sunnyvale, CA, USA). The newly separated protoscoleces were washed twice with Krebs–ringer phosphate HEPES (KRPH) buffer and then resuspended in 1 ml glucose uptake buffer for 1 h. Each well contained about 200 protoscoleces. Isolated E. multilocularis germinal cells were resuspended with serum-free DMEM and cultured overnight in nitrogen at 37 °C. Germinal cells were then washed twice with KPRH buffer and resuspended in 90 μl glucose uptake buffer for 1 h. Subsequently, the protoscoleces and germinal cells were added with 10 μl thiacloprid (5 μM) for 1 h, and treated with 10 μl 2-deoxyglucose (2DG) for 1 h. The germinating cells treated with thiacloprid were labeled with mitochondria red fluorescent probe (Beyotime, Shanghai, China) and the percentage of living cells was measured by flow cytometry. The protoscoleces and germinal cells were washed twice with KRPH buffer and then lysed with 25 μl acidic lysis buffer in an Eppendorf tube (EP) for 30 min. A neutralizing buffer was added to each well and left at room temperature for 20 min to neutralize the lysate. […] Lastly, the mixture was transferred to a 96-well cell culture plate and the absorbance was measured at 570 nm using an Infinite M200 PRO reader (Tecan). […]

acetylcholinesterase = experiment: Acetylcholinesterase activity (Ellman) in extracts of protoscoleces, metacestodes and germinal cells; type: biochemical, Echinococcus multilocularis; settings: extract; thiacloprid 5 μM, 37 °C 10 min; BW284c51 positive control
Description: The effects of thiacloprid on the acetylcholinesterase activity of E. multilocularis protoscoleces, metacestodes and germinal cells were determined according to a previously described method. The protoscoleces, metacestode and germinal cells were washed twice with PBS and homogenized with an electric homogenizer in precooled PBS. Centrifugation of the homogenates was performed at 100,000×g for 30 min. The protein concentration of the supernatant was determined by the modified Lowry method according to the instructions, and the concentration was adjusted to 2 mg/ml. Thiacloprid (5 μM) was added to the extract and incubated at 37 °C for 10 min. The extract was supplemented with 0.1% DMSO as control. Subsequently, acetylcholinesterase activity was assessed according to Ellman’s procedure using a microplate with 260 µl of 0.1 M PBS buffer pH 8.0, 10 µl of 10 mM dithiobisnitrobenzoic acid solution, 2.5 µl of 75 mM substrate (acetylthiocholine iodide) and 25 µl of the sample treated with thiacloprid. The OD increment was measured at 412 nm using an Infinite M200 PRO reader (Tecan). Each experiment was conducted three times. BW284c51 (CAS number: 402-40-4, Sigma) was used as a positive control.

[5] = set-up: method as in PMID 32229153; settings: mice; cited from earlier work

Work on `N#C/N=C1\SCCN1Cc1ccc(Cl)nc1` [thiacloprid] yielded a viability at 2.5 µM ([1]; Echinococcus multilocularis, 120 h, 2.5 μM, read-out: Cell viability rate of germinal cells) of 58.3 ± 6.09%, a viability at 5 µM ([1]; Echinococcus multilocularis, 120 h, 5 μM, read-out: Cell viability rate of germinal cells) of 38.3 ± 4.47% and an IC50 ([1]; Echinococcus multilocularis, 120 h, CellTiter-Glo, read-out: IC50 against germinal cells) of 2890 ± 340 nM. The “Inhibition rate of germinal cell viability” value ([1]; more than 10 μM) was “more than 80%”, the “Expression of IL-2, IL-4 and IL-10 in microcyst fluid” value [2] was “upregulated” and the “Expression of IL-2, IL-4 and IL-10 in serum compared with the untreated group” value [2] was “upregulated”. For the same compound, the “Expression of IgE in serum compared with the untreated group” value [2] was “downregulated”, the “PAS staining of laminated layer of metacestodes from treated mice” value ([3]; 6 weeks oral treatment) was “only a few laminated layers were observed” and the “HE staining of metacestodes from treated mice” value ([3]; 6 weeks oral treatment, thiacloprid 15 or 30 mg/kg/day, ABZ 100 mg/kg/day) was “Considerable vacuoles”. For the same compound, the “Wet weight of the metacestodes” value ([3]; thiacloprid 15 mg/kg/day orally, 6 weeks (Thia15 group)) was 1.63 ± 0.62 g, the “Wet weight of the metacestodes” value ([3]; thiacloprid 30 mg/kg/day orally, 6 weeks (Thia30 group)) was 1.63 ± 0.61 g and the “Uptake of 2-DG by protoscoleces and germinal cells” value ([4]; 5 μM, 1 h) was “reduced uptake”. The “Viability of protoscoleces and germinal cells” value ([4]; treatment for 1 h) was “not affected”, the “Acetylcholinesterase activity in protoscoleces, metacestode vesicles and germinal cells” value (acetylcholinesterase) was “suppressed” and the “Dose that induced obvious hepatocellular hypertrophy and cytoplasm degeneration” value [5] was “more than 108 mg/kg”.

Source: article PMC8419995, “In vitro and in vivo efficacy of thiacloprid against Echinococcus multilocularis” (Parasites & Vectors, 2021)
